According to PubChem BioAssay AID624254 (Broad Institute, 2012):
Activity calls are given as the source filed them. How the calls were made is not given here.

Key:
[1] = target: V. cholerae BH1651 luxOD47E, luciferase light induction, 6 h; assay: Quorum luxo inducers, light production, v cholerae bh1651 luxod47e, confirmatory dose response (AID 624254)
[2] = as above; conditions: V. cholerae BH1651 luxOD47E, luciferase light induction, 6 h; at 50 µM (top of the series)

Compound	AC50 [1]	activation (light increase) [2]
C[C@H](CO)N1C[C@H](C)[C@@H](CN(C)S(=O)(=O)c2ccccc2)Oc2c(NC(=O)Nc3ccc4c(c3)OCO4)cccc2C1=O	1800 nM	–
CCOC(=O)c1cnc2nc(C(F)(F)F)[nH]n2c1=O	15700 nM	–
Cc1ccc(C(=O)OCC(=O)NCC(F)(F)F)cc1C	2410 nM	–
COC(=O)C(C)N(c1ccc(C)cc1)S(=O)(=O)c1c(C)[nH]c(=O)[nH]c1=O (centres undefined)	> 50000 nM (inactive)	–
COc1ccc(NC(=O)CCS(=O)(=O)c2ccc3c(c2)CCCN3C(C)=O)cc1Cl	113 nM	–
CCc1cc(C(=O)c2ccccc2OC)c(N)s1	802 nM	–
O=c1cc(CSc2ccccn2)c2ccccc2[nH]1	615 nM	–
CC(C)C(NC(=O)c1ccc(S(=O)(=O)N2CCOCC2)cc1)c1nc2ccccc2[nH]1 (centres undefined)	15300 nM	–
Cc1ccc(-n2nnnc2SCC(=O)NCC2CCCO2)cc1C (centres undefined)	33.6 nM	–
Cc1ccc2cc3c(NC(=O)c4ccco4)nn(C)c3nc2c1	< 23.5 nM	–
Cc1nc2ncnn2c(C)c1Cc1c(Cl)cccc1Cl	1220 nM	–
O=C(COC(=O)/C=C/c1ccccc1)NC1CCCC1	> 50000 nM (inactive)	–
CCC(=O)N(CC)c1nc(-c2cc(OC)ccc2OC)cs1	162 nM	–
Cc1ccc2onc(CC(=O)O)c2c1	8360 nM	–
Cn1c(C(=O)NC2CCCCC2)cc2c(=O)n(C)c3ccccc3c21	27.3 nM	–
CSc1nc(C)cc(OCC(=O)N2CCOCC2)n1	113 nM	–
CC(C)(C)Cc1nc(-c2ccccn2)no1	> 50000 nM (inactive)	–
O=[N+]([O-])c1ccc(N2CCOCC2)c2c1no[n+]2[O-]	1740 nM	–
CCCCCCCCOC(=O)C(NC(=O)CCC(=O)Nc1ccc(S(N)(=O)=O)cc1)C(O)c1ccccc1 (centres undefined)	> 50000 nM (inactive)	–
CCc1ccc(NS(=O)(=O)c2cccs2)cc1	212 nM	–
O=C(NCc1ccccn1)c1ccc(CS(=O)(=O)Cc2ccc(Cl)cc2)o1	20500 nM	–
CN(C(=O)Cn1cc(C(F)(F)F)cc(Cl)c1=O)C1CCS(=O)(=O)C1 (centres undefined)	1230 nM	–
CCOc1ccc(CCNC(=O)C2CCN(c3ccc(N4CCOCC4)nn3)CC2)cc1OCC	44.5 nM	–
O=C(Nc1nnc(C(F)(F)F)s1)C1COc2ccccc2O1 (centres undefined)	13700 nM	–
O=C(c1cc2cc(Cl)ccc2oc1=O)N1CCOCC1	67.8 nM	–

Compound	AC50 [1]	activation (light increase) [2]
C[C@H](CO)N1C[C@H](C)[C@@H](CN(C)S(=O)(=O)c2ccccc2)Oc2c(NC(=O)Nc3ccccc3)cccc2C1=O	6480 nM	–
O=C(NCc1ccco1)C1CCCN1S(=O)(=O)c1ccc2ccccc2c1 (centres undefined)	> 50000 nM (inactive)	–
CCOc1ccc(CCNC(=O)COC(=O)Cc2ccc(F)cc2)cc1OCC	95.3 nM	–
COc1ccc(Cl)cc1S(=O)(=O)NC(C)C(=O)NCCCn1ccnc1 (centres undefined)	180 nM	–
COC(=O)c1ccccc1NC(=O)Cn1cc2c(n1)CCC(C)C2 (centres undefined)	1480 nM	–
COc1ccc(S(=O)(=O)N2CCN(c3cnccn3)CC2)cc1	2580 nM	–
Cc1noc(C)c1NC(=O)Nc1cccc2c1O[C@@H](CN(C)S(=O)(=O)c1cccs1)[C@H](C)CN([C@H](C)CO)C2=O	11200 nM	–
O=C(O)c1cccc(Nc2ncnc3c2cnn3-c2ccccc2)c1	> 50000 nM (inactive)	–
COc1cc(NC(=O)Nc2cccc(Cl)c2)c(OC)cc1NC(=O)CN1CCCCC1	522 nM	–
CC(C)Cn1c(CN2CCN(C)C(CCO)C2)nc2ccccc21 (centres undefined)	> 50000 nM (inactive)	–
COc1ccc(NC(=O)Nc2cccc3c2O[C@H](CN(C)S(=O)(=O)c2ccccc2)[C@@H](C)CN([C@H](C)CO)C3=O)cc1	13200 nM	–
Cc1noc(C)c1S(=O)(=O)Nc1ccc2c(c1)C(=O)N([C@H](C)CO)C[C@H](C)[C@@H](CN(C)Cc1ccc(C(=O)O)cc1)O2	18800 nM	–
CCCCCc1c(C)nc(N2CCc3ccccc3C2)[nH]c1=O	295 nM	–
CC(=O)Nc1ccc(N2CCCC2)cc1	> 50000 nM (inactive)	–
Cc1ccc(C)c(-n2c(Cc3cccs3)n[nH]c2=S)c1	< 23.5 nM	–
O=C(CSc1nnc2ccccn12)c1ccc2c(c1)OCCO2	17000 nM	–
CC(C)c1ccc(CNc2nnnn2C)cc1	101 nM	–
COc1ccc(OCCOC(=O)CCS(=O)(=O)c2ccc(C)cc2)cc1	208 nM	–
O=C(Cn1cccc1C(=O)c1ccccc1)NCCN1CCCCCC1	25600 nM	–
Cc1cc(Oc2ccc(C#N)cc2)nc(N2CCOCC2)n1	208 nM	–
CN(CC(=O)Nc1c(Cl)cccc1Cl)C(=O)c1n[nH]c2ccccc12	38800 nM	–
CCCS(=O)(=O)N1CCCC(C(=O)NCc2ccc(C)cc2)C1 (centres undefined)	–	inactive
CCn1c(CC(=O)Nc2cccc(Cl)c2Cl)nnc1SCCOc1ccc(OC)cc1	–	inactive
CC1(C)Nc2ccc(O)cc2-c2c1ssc2=S	–	inactive
CCCCNC(=O)c1ccccc1NC(=O)CCSc1ccccc1	–	inactive

Compound	AC50 [1]	activation (light increase) [2]
Cc1cccc(-c2noc(CN(C(=O)C34CC5CC(CC(C5)C3)C4)C(C)C)n2)c1	–	inactive
C[C@@H]1CN([C@H](C)CO)C(=O)c2cccc(NC(=O)Nc3ccc4c(c3)OCO4)c2O[C@H]1CN(C)S(=O)(=O)c1ccccc1	–	inactive
CCc1ccc(OCCNC(=O)c2ccco2)cc1	–	inactive
O=C(NCCN1CCOCC1)c1cccc(NS(=O)(=O)c2ccc(Br)cc2)c1	–	inactive
CCC1Nc2ncnc(N3CCN(c4ccccc4)CC3)c2N(Cc2ccccc2)C1=O (centres undefined)	–	inactive
CCOCCCNC(=O)C(NC(=O)CNC(=O)c1ccccc1)c1ccccc1 (centres undefined)	–	inactive
Cc1cc(C(F)(F)F)c2c(N)c(C(=O)NC3CC3)sc2n1	–	inactive
CN(CC(=O)Nc1ccc(OC(F)(F)F)cc1)C(=O)C1CCC1	–	inactive
O=C(NCc1ccccc1)C1CCCN(S(=O)(=O)c2cccnc2)C1 (centres undefined)	–	inactive
COc1cccc(CN(C)C(=O)CSC(C)C(=O)Nc2cc(C)on2)c1OC (centres undefined)	–	inactive
CCC(CCC(=O)Nc1cccc(C(=O)O)c1)C(=O)O (centres undefined)	–	inactive
O=C(OCc1cc(=O)n2ccsc2n1)c1ccc(OC(F)F)cc1	–	inactive
Cn1c(=O)c2c(nc(SCCN3CCOCC3)n2Cc2cccc3ccccc23)n(C)c1=O	–	inactive
Cc1ccccc1C(=O)Nc1ccc(-c2nc3ccc(C(=O)c4ccccc4)cc3[nH]2)cc1	–	inactive
COc1ccc(S(=O)(=O)N(C)C[C@H]2Oc3c(NC(=O)Nc4ccc5c(c4)OCO5)cccc3C(=O)N([C@H](C)CO)C[C@@H]2C)cc1	–	inactive
CC(C)OC(=O)CSc1nnc(SCc2cccc3ccccc23)s1	–	inactive
Cn1cnc(S(=O)(=O)Nc2ccc(Cl)cc2)c1	–	inactive
Cn1cnc(S(=O)(=O)Nc2ccccc2Cl)c1	–	inactive
Cc1noc(C)c1NC(=O)Nc1cccc2c1O[C@@H](CN(C)S(=O)(=O)c1cccs1)[C@H](C)CN([C@@H](C)CO)C2=O	–	inactive
Brc1ccc(C2=Nn3c(nnc3-c3n[nH]c4c3CCC4)SC2)cc1	–	inactive
CC(=O)Nc1ccc2nc(-c3cccnc3)[nH]c2c1	–	inactive
CN(c1ccccc1)S(=O)(=O)c1nnc(NC(=O)C2CCCCC2)s1	–	inactive
COc1ccc(OCC(=O)NC2CCCN(Cc3ccc(Cl)cc3)C2)cc1 (centres undefined)	–	inactive
COCc1nnc(NS(=O)(=O)c2ccc(Br)cc2)s1	–	inactive
